Results: article PMC9611977 (Toxins, 2022)
Bridge positions count the residues as written; N and C are the ends. Ends that are not written are not given here.

Experiments:
[1] = tested on: rat ASIC1a; assay: two-electrode voltage clamp on rASIC1a expressed in X. laevis oocytes; assay type: cell-based; settings: maximal applied concentration 100 μM; pH drop 7.4 to 5.5
Procedure: Rat ASIC1a and ASIC3 channels were expressed in X. laevis oocytes after injection of 2.5–10 ng of cRNA, as previously described. After injection oocytes were kept for 2–3 days at 19 °C and then up to 5 days at the temperature of 15–16 °C in sterile ND96 medium (96 mM NaCl, 2 mM KCl, 1.8 mM CaCl2, 1 mM MgCl2, 5 mM HEPES titrated to pH 7.4 with NaOH supplemented with 50 μg/mL of gentamycin). Two-electrode voltage clamp recordings were performed using GeneClamp 500 amplifier (Axon Instruments, Burlingame, CA, USA). The data were filtered at 50 Hz and digitized at 1000 Hz by an AD converter L780 (LCard, Moscow, Russia) using in-house software (Moscow). The solutions were applied to a cell chamber (volume 50 μL). The laminar flow of an external solution of ND96 (pH 7.4) was used at a rate of 1 mL/min. ASIC1a and ASIC3 were activated by a short (1 s) application of a solution with a pH 5.5 (10 mM MES) using a fast application system. Peptides were applied 15 s before the activation pulse in a solution containing 0.1% BSA. A value of currents inhibition was calculated as the ratio of the peak current amplitude, when the peptide was applied to the average amplitude of the control peak currents before and after the peptide application and expressed as a percentage. […]

[2] = biological target: T1, rat ASIC3 (Rattus norvegicus, UniProt O35240); assay: two-electrode voltage clamp on rASIC3 expressed in X. laevis oocytes; assay type: cell-based
T1 construct: expressed in transfected cells; host or cells: Xenopus laevis oocytes (cRNA injection)
T1 sequence (O35240 1-533): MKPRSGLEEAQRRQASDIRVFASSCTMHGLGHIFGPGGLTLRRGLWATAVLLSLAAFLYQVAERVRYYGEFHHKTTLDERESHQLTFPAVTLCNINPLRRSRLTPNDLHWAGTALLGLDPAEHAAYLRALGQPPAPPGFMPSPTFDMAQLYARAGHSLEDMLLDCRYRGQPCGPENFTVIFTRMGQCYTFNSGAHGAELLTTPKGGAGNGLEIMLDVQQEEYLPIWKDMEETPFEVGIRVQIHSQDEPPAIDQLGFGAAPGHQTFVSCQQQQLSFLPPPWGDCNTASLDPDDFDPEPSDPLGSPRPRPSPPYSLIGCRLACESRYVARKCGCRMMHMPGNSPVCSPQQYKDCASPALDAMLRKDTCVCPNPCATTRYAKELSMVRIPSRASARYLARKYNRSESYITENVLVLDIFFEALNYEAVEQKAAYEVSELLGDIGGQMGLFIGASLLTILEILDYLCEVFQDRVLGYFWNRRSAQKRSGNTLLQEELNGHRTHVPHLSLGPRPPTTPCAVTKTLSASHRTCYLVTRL
Procedure: Rat ASIC1a and ASIC3 channels were expressed in X. laevis oocytes after injection of 2.5–10 ng of cRNA, as previously described. After injection oocytes were kept for 2–3 days at 19 °C and then up to 5 days at the temperature of 15–16 °C in sterile ND96 medium (96 mM NaCl, 2 mM KCl, 1.8 mM CaCl2, 1 mM MgCl2, 5 mM HEPES titrated to pH 7.4 with NaOH supplemented with 50 μg/mL of gentamycin). Two-electrode voltage clamp recordings were performed using GeneClamp 500 amplifier (Axon Instruments, Burlingame, CA, USA). The data were filtered at 50 Hz and digitized at 1000 Hz by an AD converter L780 (LCard, Moscow, Russia) using in-house software (Moscow). The solutions were applied to a cell chamber (volume 50 μL). The laminar flow of an external solution of ND96 (pH 7.4) was used at a rate of 1 mL/min. ASIC1a and ASIC3 were activated by a short (1 s) application of a solution with a pH 5.5 (10 mM MES) using a fast application system. Peptides were applied 15 s before the activation pulse in a solution containing 0.1% BSA. A value of currents inhibition was calculated as the ratio of the peak current amplitude, when the peptide was applied to the average amplitude of the control peak currents before and after the peptide application and expressed as a percentage. To construct the concentration-response curves, a logistic equation was the following: y = ((1 − A)/(1 + ([C]/IC50)^nH)) + A; where y is the relative value of current inhibition; C is the peptide concentration; IC50 is the half maximal inhibitory concentration; nH is the Hill coefficient; A is an amplitude of maximum inhibition (% of control).

[3] = tested on: muscle α1β1δε nAChR; design: method as in PMID 16571968; settings: read-out: EC50 of ACh for α1β1δε; cited from earlier work

Compound | inhibition of rASIC1a current [1] [%] | IC50 [2] [µM] | maximal inhibitory effect on rASIC3 acid-induced current ([2]; 100 μM peptide, pH drop 7.4 to 5.5) | Hill coefficient nH, rASIC3 inhibition ([2]; logistic fit, n = 5) | Iminimal, rASIC3 concentration-response fit ([2]; logistic fit, n = 5, amplitude of maximum inhibition (% of control)) | EC50 [3] [µM]
GTPCKCLGYTGVYWFMITRCPNGHGYNLSCPYFLGVCCVKK (disulfide 4-37, 6-30, 20-38) [Hmg 1b-5] | 17 | 13.8 ± 0.6 | about 78% | 1.22 ± 0.04 | 22.4 ± 1.3 | –
CC(=O)OCC[N+](C)(C)C [ACh, acetylcholine] | – | – | – | – | – | ~5
